Results on 29 compounds are retold here after patent US10131675B2 (Genentech, Inc., priority 2015, dated 2018).

By Ki is commonly meant the dissociation constant of the complex between target and ligand, obtained from inhibition or displacement.

Structures are written as SMILES.

Sequence of DLK (Q12852 1-520): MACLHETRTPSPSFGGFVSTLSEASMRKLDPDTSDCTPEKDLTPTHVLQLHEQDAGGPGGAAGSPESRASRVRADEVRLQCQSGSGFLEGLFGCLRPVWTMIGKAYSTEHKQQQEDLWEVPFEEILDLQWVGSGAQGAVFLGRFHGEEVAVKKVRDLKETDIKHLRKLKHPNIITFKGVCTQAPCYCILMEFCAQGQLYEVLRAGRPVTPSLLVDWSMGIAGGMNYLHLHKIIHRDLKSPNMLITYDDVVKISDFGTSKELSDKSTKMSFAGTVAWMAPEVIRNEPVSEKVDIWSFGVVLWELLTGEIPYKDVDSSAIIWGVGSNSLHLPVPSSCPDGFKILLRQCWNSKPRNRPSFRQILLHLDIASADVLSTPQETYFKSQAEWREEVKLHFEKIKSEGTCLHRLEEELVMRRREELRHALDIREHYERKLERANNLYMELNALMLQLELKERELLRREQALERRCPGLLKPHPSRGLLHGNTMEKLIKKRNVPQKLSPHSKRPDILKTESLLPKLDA

This assay concerns the target DLK (Homo sapiens (Human), UniProt Q12852). Briefly: DLK TR-FRET Inhibition Assay. It counts as biochemical. To be noted: N-terminally GST-tagged DLK (catalytic domain amino acid 1-520), MKK4 K131M substrate, 30 μM ATP; read-out: DLK HTRF Ki. As to the method: DLK kinase reactions (20 μL) containing 5 nM N-terminally GST-tagged DLK (catalytic domain amino acid 1-520) (Carna Bioscience), 40 nM N-terminally HIS tagged MKK4 K131M substrate, and 30 μM ATP in kinase reaction buffer (50 mM HEPES, pH 7.5, 0.01% Triton X-100, 0.01% Bovine γ-Globulins, 2 mM DTT, 10 mM MgCl2 and 1 mM EGTA), and testing compound 1:3 serial diluted starting at 20 uM were incubated at ambient temperature for 60 minutes in 384 well OptiPlate (Perkin Elmer). To quench kinase reactions and detect phosphorylated MKK4, 15 μL of TR-FRET antibody mixture containing 2 nM anti-phosphorylated MKK4 labeled with Europium cryptate (Cisbio) and 23 nM anti-HIS labeled with D2 (Cisbio) in detection buffer (25 mM Tris pH 7.5, 100 mM NaCl, 100 mM EDTA, 0.01% Tween-20, and 200 mM KF) was added to the reaction mixture. The detection mixture was incubated for 3 hours at ambient temperature and the TR-FRET was detected with an EnVision multilabel plate reader (Perkin-Elmer) using the LANCE/DELFIA Dual Enh label from Perkin-Elmer (excitation filter: UV2 (TRF) 320 and emission filters: APC 665 and Europium 615).
A general note: Time-resolved FRET reads energy transfer from a long-lived donor to a nearby acceptor.
`CC1(C)OCCn2c1nc1c(N3CC4CC3C4)nc(-c3cnc4[nH]ccc4c3)nc12` [Example 23, 1-(2-Aza-bicyclo[2.1.1]hex-2-yl)-8,8-dimethyl-3-(1H-pyrrolo[2,3-b]pyridin-5-yl)-5,6-dihydro-8H-7-oxa-2,4,4b,9-tetraaza-fluorene]: the Ki turned out to be 0.0577 µM.

As for `CCC1CCCN1c1nc(-c2cnc(N)nc2)nc2c1nc1n2CCOC1(C)C` (centres unmarked) [Example 24, 5-[1-(2-Ethyl-pyrrolidin-1-yl)-8,8-dimethyl-5,6-dihydro-8H-7-oxa-2,4,4b,9-tetraaza-fluoren-3-yl]-pyrimidin-2-ylamine], the Ki came to 0.294 µM.

On to `C[C@@H]1CCCN1c1nc(-c2cnc(N)nc2)nc2c1nc1n2CCOC1(C)C` [Example 26, 5-[8,8-Dimethyl-1-((R)-2-methyl-pyrrolidin-1-yl)-5,6-dihydro-8H-7-oxa-2,4,4b,9-tetraaza-fluoren-3-yl]-pyrimidin-2-ylamine], for which the Ki was 0.21 µM.

Take `CC1CCN(c2nc(-c3cnc(N)nc3)nc3c2nc2n3CCOC2(C)C)C1` (centres unmarked) [Example 27, 5-[8,8-Dimethyl-1-(3-methyl-pyrrolidin-1-yl)-5,6-dihydro-8H-7-oxa-2,4,4b,9-tetraaza-fluoren-3-yl]-pyrimidin-2-ylamine]: the Ki was found to be 0.299 µM.

Turning to `CC1(C)OCCn2c1nc1c(N3CCC(C(F)(F)F)C3)nc(-c3cnc(N)nc3)nc12` (centres unmarked) [Example 28, 5-[8,8-Dimethyl-1-(3-trifluoromethyl-pyrrolidin-1-yl)-5,6-dihydro-8H-7-oxa-2,4,4b,9-tetraaza-fluoren-3-yl]-pyrimidin-2-ylamine], the Ki turned out to be 0.245 µM.

Turning to `CC1(C)OCCn2c1nc1c(N3C[C@@H](F)[C@@H](F)C3)nc(-c3cnc(N)nc3)nc12` [Example 29, 5-[1-(cis-3,4-Difluoro-pyrrolidin-1-yl)-8,8-dimethyl-5,6-dihydro-8H-7-oxa-2,4,4b,9-tetraaza-fluoren-3-yl]-pyrimidin-2-ylamine], the Ki came to 0.297 µM.

As for `Cc1c[nH]c2ncc(-c3nc(N4CCC5(COC5)C4)c4nc5n(c4n3)CCOC5(C)C)cc12` [Example 30, 8,8-Dimethyl-3-(3-methyl-1H-pyrrolo[2,3-b]pyridin-5-yl)-1-(2-oxa-6-aza-spiro[3.4]oct-6-yl)-5,6-dihydro-8H-7-oxa-2,4,4b,9-tetraaza-fluorene], the Ki was determined as 0.0102 µM.

With `CC1(C)CN(c2nc(-c3cnc(N)nc3)nc3c2nc2n3CCOC2(C)C)C1` [Example 31, 5-[1-(3,3-Dimethyl-azetidin-1-yl)-8,8-dimethyl-5,6-dihydro-8H-7-oxa-2,4,4b,9-tetraaza-fluoren-3-yl]-pyrimidin-2-ylamine], the Ki was 0.424 µM.

With `Cc1c[nH]c2ncc(-c3nc(N4CC(O)C4)c4nc5n(c4n3)CCOC5(C)C)cc12` [Example 32, 1-[8,8-Dimethyl-3-(3-methyl-1H-pyrrolo[2,3-b]pyridin-5-yl)-5,6-dihydro-8H-7-oxa-2,4,4b,9-tetraaza-fluoren-1-yl]-azetidin-3-ol], the Ki is 0.0131 µM.

For the compound `CC1(C)OCCn2c1nc1c(N3CC4CCC3C4)nc(-c3cnc(N)nc3)nc12` (centres unmarked) [Example 33, 5-[1-(2-Aza-bicyclo[2.2.1]hept-2-yl)-8,8-dimethyl-5,6-dihydro-8H-7-oxa-2,4,4b,9-tetraaza-fluoren-3-yl]-pyrimidin-2-ylamine], the Ki worked out at 0.0903 µM.

Regarding `Cc1c[nH]c2ncc(-c3nc(N4CC5CCC4C5)c4nc5n(c4n3)CCOC5(C)C)cc12` (centres unmarked) [Example 34, 1-(2-Aza-bicyclo[2.2.1]hept-2-yl)-8,8-dimethyl-3-(3-methyl-1H-pyrrolo[2,3-b]pyridin-5-yl)-5,6-dihydro-8H-7-oxa-2,4,4b,9-tetraaza-fluorene], the Ki stood at 0.0318 µM.

`CC1(C)OCCn2c1nc1c(N3CC4CC3C4)nc(-c3cnc(N)c(Cl)c3)nc12` [Example 35, 5-[1-(2-Aza-bicyclo[2.1.1]hex-2-yl)-8,8-dimethyl-5,6-dihydro-8H-7-oxa-2,4,4b,9-tetraaza-fluoren-3-yl]-3-chloro-pyridin-2-ylamine]: the inhibitory constant (Ki) is 0.235 µM.

Consider `CC1(C)OCCn2c1nc1c(N3CC4CC3C4)nc(-c3cnc(N)c(F)c3)nc12` [Example 36, 5-[1-(2-Aza-bicyclo[2.1.1]hex-2-yl)-8,8-dimethyl-5,6-dihydro-8H-7-oxa-2,4,4b,9-tetraaza-fluoren-3-yl]-3-fluoro-pyridin-2-ylamine], for which the Ki turned out to be 0.444 µM.

For `CC1(C)OCCn2c1nc1c(N3CC4CCC3C4)nc(-c3cnc4ccnn4c3)nc12` (centres unmarked) [Example 37, 1-(2-Aza-bicyclo[2.2.1]hept-2-yl)-8,8-dimethyl-3-pyrazolo[1,5-a]pyrimidin-6-yl-5,6-dihydro-8H-7-oxa-2,4,4b,9-tetraaza-fluorene], the Ki was 0.663 µM.

For `CC1(C)OCCn2c1nc1c(N3CC4CC3C4)nc(-c3cnc4ccnn4c3)nc12` [Example 38, 1-(2-Aza-bicyclo[2.1.1]hex-2-yl)-8,8-dimethyl-3-pyrazolo[1,5-a]pyrimidin-6-yl-5,6-dihydro-8H-7-oxa-2,4,4b,9-tetraaza-fluorene], the Ki was found to be 0.28 µM.

As to `CC1(C)OCCn2c1nc1c(N3CC(O)C3)nc(-c3cnc4[nH]cc(C(F)(F)F)c4c3)nc12` [Example 39, 1-[8,8-Dimethyl-3-(3-trifluoromethyl-1H-pyrrolo[2,3-b]pyridin-5-yl)-5,6-dihydro-8H-7-oxa-2,4,4b,9-tetraaza-fluoren-1-yl]-azetidin-3-ol], the Ki came out at 0.00679 µM.

On to `CC1(C)OCCn2c1nc1c(N3CC(O)C3)nc(-c3cnc4[nH]cc(Cl)c4c3)nc12` [Example 40, 1-[3-(3-Chloro-1H-pyrrolo[2,3-b]pyridin-5-yl)-8,8-dimethyl-5,6-dihydro-8H-7-oxa-2,4,4b,9-tetraaza-fluoren-1-yl]-azetidin-3-ol], for which the Ki turned out to be 0.00591 µM.

Turning to `COC1CN(c2nc(-c3cnc4[nH]cc(C#N)c4c3)nc3c2nc2n3CCOC2(C)C)C1` [Example 41, 5-[1-(3-Methoxy-azetidin-1-yl)-8,8-dimethyl-5,6-dihydro-8H-7-oxa-2,4,4b,9-tetraaza-fluoren-3-yl]-1H-pyrrolo[2,3-b]pyridin-3-carbonitrile], the Ki amounted to 0.0308 µM.

In the case of `CC1(C)OCCn2c1nc1c(N3CCC4(COC4)C3)nc(-c3cnc4[nH]cc(C#N)c4c3)nc12` [Example 42, 5-[8,8-Dimethyl-1-(2-oxa-6-aza-spiro[3.4]oct-6-yl)-5,6-dihydro-8H-7-oxa-2,4,4b,9-tetraaza-fluoren-3-yl]-1H-pyrrolo[2,3-b]pyridin-3-carbonitrile], the Ki amounted to 0.00497 µM.

In the case of `CC1(C)OCCn2c1nc1c(N3CC4CC3C4)nc(-c3cnc(N)c(OC(F)F)c3)nc12` [Example 43, 5-[1-(2-Aza-bicyclo[2.1.1]hex-2-yl)-8,8-dimethyl-5,6-dihydro-8H-7-oxa-2,4,4b,9-tetraaza-fluoren-3-yl]-3-difluoromethoxy-pyridin-2-ylamine], the Ki was 0.0418 µM.

`CC1(C)OCCn2c1nc1c(N3CC4CC3C4)nc(-c3cnc(N)c(C4CC4)c3)nc12` [Example 44, 5-[1-(2-Aza-bicyclo[2.1.1]hex-2-yl)-8,8-dimethyl-5,6-dihydro-8H-7-oxa-2,4,4b,9-tetraaza-fluoren-3-yl]-3-cyclopropyl-pyridin-2-ylamine]: the Ki stood at 0.621 µM.

For the compound `CC1(C)OCCn2c1nc1c(N3CC(F)C3)nc(-c3cnc4[nH]cc(C(F)(F)F)c4c3)nc12` [Example 45], the Ki amounted to 0.00987 µM.

As to `CC1(C)OCCn2c1nc1c(N3CC4CC3C4)nc(-c3cnc(N)nc3)nc12` [Example 46, 5-[1-(2-Aza-bicyclo[2.1.1]hex-2-yl)-8,8-dimethyl-5,6-dihydro-8H-7-oxa-2,4,4b,9-tetraaza-fluoren-3-yl]-pyrimidin-2-ylamine], the inhibition constant Ki turned out to be 0.13 µM.

With `CNc1ncc(-c2nc(N3CC4CC3C4)c3nc4n(c3n2)CCOC4(C)C)cn1` [Example 47], the Ki amounted to 1.3 µM.

Regarding `Cc1cc(-c2nc(N3CC4CC3C4)c3nc4n(c3n2)CCOC4(C)C)cnc1N` [Example 48, 5-(4-(2-azabicyclo[2.1.1]hexan-2-yl)-6,6-dimethyl-8,9-dihydro-6H-[1,4]oxazino[4,3-e]purin-2-yl)-3-methylpyridin-2-amine], the Ki worked out at 0.992 µM.

On to `CC1(C)OCCn2c1nc1c(N3CCC4(COC4)C3)nc(-c3cnc(N)c(C(F)(F)F)c3)nc12` [Example 49, 5-[8,8-Dimethyl-1-(2-oxa-6-aza-spiro[3.4]oct-6-yl)-5,6-dihydro-8H-7-oxa-2,4,4b,9-tetraaza-fluoren-3-yl]-3-trifluoromethyl-pyridin-2-ylamine], for which the Ki amounted to 0.27 µM.

Regarding `CC1(C)OCCn2c1nc1c(N3CC4(COC4)C3)nc(-c3cnc(N)nc3)nc12` [Example 50, 5-[8,8-Dimethyl-1-(2-oxa-6-aza-spiro[3.3]hept-6-yl)-5,6-dihydro-8H-7-oxa-2,4,4b,9-tetraaza-fluoren-3-yl]-pyrimidin-2-ylamine], the Ki turned out to be 0.49 µM.

`CC1(C)OCCn2c1nc1c(N3CC4(CCCO4)C3)nc(-c3cnc(N)nc3)nc12` [Example 51, 5-[8,8-Dimethyl-1-(5-oxa-2-aza-spiro[3.4]oct-2-yl)-5,6-dihydro-8H-7-oxa-2,4,4b,9-tetraaza-fluoren-3-yl]-pyrimidin-2-ylamine]: the Ki turned out to be 0.907 µM.

Consider `CC1(C)OCCn2c1nc1c(N3CC4(CCC4)C3)nc(-c3cnc(N)nc3)nc12` [Example 52, 5-[1-(2-Aza-spiro[3.3]hept-2-yl)-8,8-dimethyl-5,6-dihydro-8H-7-oxa-2,4,4b,9-tetraaza-fluoren-3-yl]-pyrimidin-2-ylamine], for which the Ki is 0.515 µM.
